Assay results from patent US12115373B2, “Methods for reducing the risk of strokes by pharmacotherapy to reduce the number and duration of atrial fibrillations” (Xyra, LLC, priority 2022, dated 2024).

Columns and labels:
[1] = tested on: patients with either paroxysmal or persistent AFib; test: Clinical trial: episodes of long duration AFib (>1 hr), pacemaker monitoring (Example 5); type: in vivo; settings: 2 week period; for Episodes of AFib > 1 hrs: Duration / Episodes of AFib > 1 hrs: Number: 6 patients
Protocol: This example is a clinical trial evaluation of budiodarone in treating 6 patients with either paroxysmal or persistent AFib who previously evidenced episodes of long duration AFib (greater than 1 hour). In this example, the patients' heart rhythms were continuously monitored over a twelve-week period with a pacemaker (surgically invasive procedure) and were treated with different doses (2 weeks each) of budiodarone. In addition, during this trial, the patients were under continuous monitoring and constant clinician supervision.
The purpose of this example is to establish whether budiodarone reduces long duration AFib (duration >1 hr) in a clinical study setting using a pacemaker to evaluate the heart rhythm.
As above, “Number” indicates a number of long duration AFib episodes during the 2 week period, and “Duration” indicates a number of hours during the 2 week period sent in the long duration AFib episodes

[2] = tested on: patients with paroxysmal or persistent AFib; test: Clinical trial evaluation of budiodarone, 6 patients, pacemaker monitoring, two-week dose periods (Example 2); type: in vivo; parameters: Duration of episodes, Mean / Duration of sinus rhythm, Mean: unit not given here; settings: for # of AFib episodes, Mean / Duration of episodes, Mean / Duration of sinus rhythm, Mean / Longest AFib Episode - hrs: two-week period, 6 patients
Protocol: This example is a clinical trial evaluation of budiodarone in treating 6 patients with paroxysmal or persistent AFib who previously evidenced episodes of long duration AFib (greater than 24 hours). In this example, the patients' heart rhythm was continuously monitored over a two-week period with a pacemaker, and were treated with different doses of budiodarone. The purpose of this example is to establish whether budiodarone reduces long duration AFib lasting more than 24 hours.

CC[C@H](C)OC(=O)Cc1oc2ccccc2c1C(=O)c1cc(I)c(OCCN(CC)CC)c(I)c1 [budiodarone, (S)-sec-butyl2-(3-(4-(2-(diethylamino)ethoxy)-3,5-diiodobenzoyl)benzofuran-2-yl)acetate]
Episodes of AFib > 1 hrs: Duration, percent of Off Drug (baseline) ([1]; 200 mg bid): (10%) | Episodes of AFib > 1 hrs: Duration ([1]; 200 mg bid): 60 h | Episodes of AFib > 1 hrs: Number ([1]; 200 mg bid): 22 | Episodes of AFib > 1 hrs: Duration, percent of Off Drug (baseline) ([1]; 400 mg bid): (9.3%) | Episodes of AFib > 1 hrs: Duration ([1]; 400 mg bid): 56 h | Episodes of AFib > 1 hrs: Number ([1]; 400 mg bid): 12 | Episodes of AFib > 1 hrs: Duration, percent of Off Drug (baseline) ([1]; 600 mg bid): (4.3%) | Episodes of AFib > 1 hrs: Duration ([1]; 600 mg bid): 26 h | Episodes of AFib > 1 hrs: Number ([1]; 600 mg bid): 6 | Episodes of AFib > 1 hrs: Duration, percent of Off Drug (baseline) ([1]; 800 mg bid): (2.5%) | Episodes of AFib > 1 hrs: Duration ([1]; 800 mg bid): 15 h | Episodes of AFib > 1 hrs: Number ([1]; 800 mg bid): 6 | # of AFib episodes, Mean ([2]; 200 mg bid): 31 | Duration of episodes, Mean ([2]; 200 mg bid): 1.7 | Duration of sinus rhythm, Mean ([2]; 200 mg bid): 131 | Longest AFib Episode - hrs ([2]; 200 mg bid): 7 h | # of AFib episodes, Mean ([2]; 400 mg bid): 37 | Duration of episodes, Mean ([2]; 400 mg bid): 0.6 | Duration of sinus rhythm, Mean ([2]; 400 mg bid): 48 | Longest AFib Episode - hrs ([2]; 400 mg bid): 13 h | # of AFib episodes, Mean ([2]; 600 mg bid): 42 | Duration of episodes, Mean ([2]; 600 mg bid): 0.1 | Duration of sinus rhythm, Mean ([2]; 600 mg bid): 103 | Longest AFib Episode - hrs ([2]; 600 mg bid): 7 h | # of AFib episodes, Mean ([2]; 800 mg bid): 24 | Duration of episodes, Mean ([2]; 800 mg bid): 0.5 | Duration of sinus rhythm, Mean ([2]; 800 mg bid): 42 | Longest AFib Episode - hrs ([2]; 800 mg bid): 5 h | episodes of long duration AFib lasting more than 24 hours eliminated as compared to Baseline ([2]; all dose levels (200-800 mg bid)): over 70% | reduction in AFib burden (number of episodes over a 2-week period times the average duration) ([2]; vs baseline, dose levels 200-800 mg bid): more than 64%
